Experimental data published in US10716769B2 (GUANGZHOU JTREAT BIOSCI. LTD., priority 2015, dated 2020).
Values after ≈ are worked out from the molar mass of the structure shown. Where two headings read alike, the source gives them in different places.

Legend:
HIV-1 integrase = biological target: T1, HIV-1 integrase (Human immunodeficiency virus type 1 group M subtype B, UniProt P04585); experiment: Test of sample inhibition to HIV-1 integrase (ELISA, strand transfer); type: biochemical; details: for inhibition at 109 µg/mL: read-out: IC50 (HIV-1 IN inhibition), dash
T1 construct: purified HIV-1 integrase is added to donor substrates coated 96-well plate; made in house
Procedure: The half-inhibitory concentration IC50 for 3′ excision of the substrate and the strand transfer is in the range of 88.92-10.20 μg/ml, in which the best inhibitory activity of the compound is higher than that of the monomer compound of hydroxybenzoic acid. The mechanism of the HIV-1 integrase is a two-step reaction: 1) 3′ Processing: the integrase binds to the specific sequences of the long terminal repeat region (LTR) of the proviral DNA to form a stable complex, then the endonucleotides of 3′ end of nucleoside is processed, and the GT dinucleotide of the sequence . . . […] Thus, the activity of the integrase inhibitor is embodied in inhibiting the excision of the 3′end of the viral DNA or the strand transfer, and is represented by a half-inhibitory concentration IC50.
In vitro integrase test, 30 synthetic oligonucleotides are used as donor substrates, 20 synthetic oligonucleotides are used as target substrates. Purified HIV-1 integrase is added to donor substrates coated 96-well plate, ELISA reaction is performed, the product of the strand transfer of target DNA is detected, color development is conducted by biotin-labeled alkaline phosphatase system, and the microplate reader is used to measure the OD value.
First, inhibitors of the enzyme may be screened by adding a sample to the reaction system. Before use, the sample is prepared with DMSO to an appropriate concentration, and then is diluted 5 times at 4 dilutions. The sample after dilution is added into the donor substrate coated 96-well plate, and then added to the reaction Buffer containing the genetically engineered target enzyme and the biotin-target substrate, incubated under optimal reaction conditions, and colored by biotin-labeled alkaline phosphatase system, and the OD value for absorbance value at 405 nm is measured.
30 synthetic oligonucleotides are used as donor substrates, 20 synthetic oligonucleotides are used as target substrates, purified HIV-1 integrase is added to donor substrates coated 96-well plate, ELISA reaction is performed, the product of the strand transfer of target DNA is detected, color development is conducted by biotin-labeled alkaline phosphatase system, and the OD value is measured by a microplate reader. The addition of samples to the reaction system can be used to screen inhibitors for the enzyme.
1. HIV-1 IN: it is extracted and saved by Chinese National New Drug Screening Center and Institute of Pharmaceutical Biotechnology under Chinese Academy of Medical Sciences.
2. Sample Treatment: 10 samples A1-A10 dissolved into DMSO prior to use are prepared into suitable concentrations, and then diluted 5 times at 4 dilutions. Donor substrate and target substrate are from Shanghai Biochemical Synthesis.
3. Method for Test: the samples after dilution are added into the donor substrate coated 96-well plate, then added to the reaction Buffer containing the genetically engineered target enzyme and the biotin-target substrate, incubated under optimal reaction conditions, and colored by biotin-labeled alkaline phosphatase system, and the OD value for absorbance value at 405 nm is measured.

HPV 6/11 Virus = experiment: HPV detection via fluorescence quantitative PCR in genital warts tissue homogenate; design: species or system human papillomavirus; details: for HPV 6/11 virus detection, in words: 24 hours after addition into the tissue homogenate of genital warts; for HPV 6/11 Virus: genital warts tissue homogenate, 37° C., 24 hours, FQ-PCR
Source text: (§1) The aforesaid compounds and/or compositions containing the same are effective in killing and inhibiting HPV type 6/11 and type 16/18, which can be used for the preparation of drugs for preventing and treating viral infection of HPV, preventing and treating genital warts, flat warts, common warts, vaginitis, cervicitis and cervical erosion, cervical cancer, esophageal cancer and other cancers caused by HPV. The present invention observes the effect of active ingredients and products by the detection of the change in the amount of the HPV virus through the real-time quantitative PCR. Such method has been applied in several publications (Youling C A I, et al., Chinese STD/AIDS, 2002, 8: 2,108; Yuansheng W U, Ruijiang F A N, et al., Practical Application of Integrated Chinese and Western Medicine in Clinics, 2003, 3: 2,1).
(§2) The microemulsion obtained in example 1 is used as a test sample and saline for blank control.
(§3) The standard clinical genital warts specimens from a variety of patients after being cut off are washed with saline for removing bloods, and are cut into pieces under aseptic conditions, added with saline in 3 times of their volumes to be uniformly mixed, grinded into homogenate and placed at −40° C. for use.
(§4) Each test sample drug microemulsion and the saline of 50 μl for each are respectively added with 50 μl the genital warts tissue homogenate, and incubated at 37° C. for 24 hours; tests are performed according to the operation procedure provided by the HPV6, 11 and 16, 18 type FQ-PCR diagnostic kits provided by Da'an Gene Diagnostic Center. 0.2 ml of DNA extracted by the conventional alkaline lysis method is put into the thin-walled reaction tube, and simultaneously added with primers, F-PROBE, DNTP, DNA polymerase, buffers and the like in a certain concentration; ABI PRISM™ 7700 fluorescence quantitative PCR amplifier is used to repeat 40 circulations each with 45 s at 93° C. and 120 s at 55° C. after predegeneration at 93° C. for 2 mins; the quantitative results are automatically analyzed by the computer software to calculate the quantitative results of the initial copy number. The data are shown in Table 2 (completed by Da'an Gene Clinical Test Center).

HPV16/18 = experiment: as above; design: species or system human papillomavirus; details: for HPV16/18 virus detection, in words: 24 hours after addition into the tissue homogenate of genital warts; for HPV16/18: genital warts tissue homogenate, 37° C., 24 hours, FQ-PCR
Source text: as §1, §2, §3, §4

HSV-I, VR733 strain = experiment: Inhibition of cytopathic effects of Vero cells caused by herpes virus type I; type: cell-based; details: for IC50: read-out: IC50 Against HSV-1
Source text: (§5) Vero cells (kidney cells of African green monkey) are used as viral hosts to test the inhibition degree of the samples to the cytopathic effects of Vero cells caused by herpes virus type I and type II.
(§6) Vero cells (kidney cells of African green monkey) are used as viral hosts to test the inhibition degree of the samples to cytopathic effects of the Vero cell caused by herpes virus type I and type II.
(§7) 1. Virus strains: HSV-I, VR733 strain, and HSV-II, SAV strain, which both are provided by ATCC.
(§8) 2. Sample treatment: the sample is dissolved in DMSO at an appropriate concentration before use, and diluted with the culture medium 3 times at a total of 8 dilutions for test.
(§9) 3. Positive control drug: acyclovir (ACV) produced by the Hubei Ke Yi pharmaceutical factory.

HSV-II, SAV strain = experiment: Inhibition of cytopathic effects of Vero cells caused by herpes virus type II; type: cell-based; details: for IC50: read-out: IC50 Against HSV-II
Source text: as §5, §6, §7, §8, §9

Vero cells = experiment: Half toxic concentration in the anti-herpes screening; type: cell-based, African green monkey
Procedure: Vero cells (kidney cells of African green monkey) are used as viral hosts to test the inhibition degree of the samples to cytopathic effects of the Vero cell caused by herpes virus type I and type II. 2. Sample treatment: the sample is dissolved in DMSO at an appropriate concentration before use, and diluted with the culture medium 3 times at a total of 8 dilutions for test. 4.

[1] = Vero cells, CPE 48 hours, Reed-Muench

Row | SMILES | HPV 6/11 virus detection, in words (HPV 6/11 Virus) | HPV 6/11 Virus (HPV 6/11 Virus) | HPV16/18 virus detection, in words (HPV16/18) | HPV16/18 (HPV16/18) | IC50 (HIV-1 integrase) | further results
1 | O=C(O)c1cccc(O)c1O [2,3-dihydroxybenzoic acid, reference compound] | have a high concentration | 2.30 × 10^4 copy/ml | have a high concentration | 3.20 × 10^3 copy/ml | – | inhibition at 109 µg/mL (HIV-1 integrase): < 50%
2 | O=C(O)c1cc(O)c(O)c(O)c1 [3,4,5-trihydroxybenzoic acid, reference compound] | – | 0 copy/ml | – | 0 copy/ml | 591 µM | –
3 | Nc1nc2c(ncn2COCCO)c(=O)[nH]1 [ACV, acyclovir, reference compound] | – | – | – | – | – | IC50 (HSV-I, VR733 strain; Human alphaherpesvirus 1, Vero cells, CPE 48 hours, Reed-Muench): 1.09 µg/mL (≈ 4.85 µM); IC50 (HSV-II, SAV strain; Human alphaherpesvirus 2, Vero cells, CPE 48 hours, Reed-Muench): 1.23 µg/mL (≈ 5.46 µM)
4 | O=C(c1ccccc1O)c1ccccc1O [2,2′-dihydroxybenzophenone] | can no longer be detected | 0 copy/ml | can no longer be detected | 0 copy/ml | 71.5 µM | IC50 (HSV-I, VR733 strain; Human alphaherpesvirus 1, Vero, 48 h): 28.7 µg/mL (≈ 134 µM); IC50 (HSV-II, SAV strain; Human alphaherpesvirus 2, Vero, 48 h): 28.7 µg/mL (≈ 134 µM); TC50 half toxic concentration (Vero cells): 64.15 µg/mL (≈ 299 µM)
5 | O=C(c1ccccc1O)c1cccc(O)c1O [2,2′3′-trihydroxybenzophenone] | can no longer be detected | 0 copy/ml | can no longer be detected | 0 copy/ml | 45.4 µM | –
6 | O=C(O)c1ccc(O)c(O)c1 [3,4-dihydroxybenzoic acid, reference compound] | have a high concentration | 1.90 × 10^4 copy/ml | have a high concentration | 8.50 × 10^4 copy/ml | – | inhibition at 109 µg/mL (HIV-1 integrase): < 50%
7 | O=C(c1ccc(O)cc1O)c1cc(O)c(O)c(O)c1O [2,3,4,2′,4′,5-hexahydroxybenzophenone] | – | – | – | – | – | IC50 Against HSV-1 (HSV-I, VR733 strain; [1]): 28.74 µg/mL (≈ 103 µM); IC50 Against HSV-II (HSV-II, SAV strain; [1]): 28.74 µg/mL (≈ 103 µM)
